What was measured:
[1] = tested on: KPC-2 producing K. pneumoniae (ATCC BAA-1705); test: Synergistic broth micro-dilution MIC (checkerboard); type: cell-based, Klebsiella pneumoniae; details: ATCC BAA-1705; for MIC: Klebsiella pneumoniae, ATCCBAA1705, no BLI, read-out: MIC of antibiotic alone (no BLI)
[2] = tested on: KPC-3 expressing E. coli (J53 R6206); test: as above; type: cell-based, Escherichia coli
[3] = tested on: KPC-3 expressing E. coli (J53 R6206); test: microbe, parasite or virus in culture; type: cell-based, Escherichia coli; details: no BLI; E. coli J53 R6206
Protocol: The β-lactam compound was tested for in vitro antibacterial activities by the broth micro-dilution or agar dilution method as specified in documents published by Clinical and Laboratory Standards Institute (CLSI), USA (formerly NCCLS). Approved standard M7-A7, January 2006, CLSI, Wayne, Pa., USA and M100-S18, January 2008, CLSI, Wayne, Pa., USA.
In agar dilution method briefly, stock solutions of the cephalosporins for veterinary use (e.g. 2 mg/mL) was made in water, 0.1M phosphate buffers or appropriate solvents and the solution was serially two fold diluted. Compound-1 was dissolved in water and Tazobactam (comparator BLI) in 0.1M phosphate buffer, pH 6.0 to get a solution of 1 mg/mL. Cephalosporins were screened in a concentration range of 0.5-32 μg/mL. For combination, Tazobactam or the Compound-1 described herein were tested at a fixed concentration of 4 μg/mL along with the cephalosporins concentration ranging from 0.5 to 32 μg/mL. […] The compound of formula (I) and Tazobactam were also tested individually. The bacterial inoculum was prepared by picking 3 to 5 well isolated bacterial colonies with the same morphological appearance from an 18-24 h old culture and adjusting the turbidity of the saline suspension to 0.5 McFarland turbidity standard equivalent to a bacterial population of ˜1×10^8 CFU per mL of suspension. The suspension was diluted 1:10 in saline to get a bacterial population of ˜1×10^7 CFU/mL as inoculum. This bacterial inoculum was inoculated onto the prepared petri dishes by a multipoint inoculator with each inoculum spot containing ˜1×10^4 CFU of the bacterial strain. The inoculated petri dishes were incubated at 35° C. in an ambient atmosphere for 18-20 h.

[4] = tested on: E. coli Ecoli233 (KPC3); test: Synergistic broth micro-dilution MIC; type: cell-based, Escherichia coli
[5] = tested on: KPC2 K. pneumoniae ATCC BAA 1705; test: Mice systemic infection model; type: in vivo; details: Klebsiella pneumoniae, BAA1705; mice, sub-cutaneous; read-out: ED50 of Doripenem alone
Protocol: Female Swiss Albino mice, weighing 18-22 g were used for all studies. For each dose group, 5 or 6 mice were included. Study protocols were reviewed and approved by Institutional Animal Ethical Committee, Orchid Research Laboratories Limited. Mice were housed in individually ventilated cages provided with food and water ad libitum, throughout the study period. From overnight culture in Brain-Heart Infusion agar medium, challenge inoculum with required bacterial density was prepared in normal saline containing Hog gastric mucin. In studies involved with doripenem, washed bacterial cells was used. Each mouse was infected […] inoculum by intra-peritoneal injection.
Infected mice were dosed sub-cutaneously, with drug preparations at three different time points post-infection.
Imipenem with BLI combinations: Increasing concentrations of Imipenem as single agent or in combination with fixed concentration of BLIs were used to dose infected mice, sub-cutaneously. In this experiment Imipenem was always administered along with cilastatin. Doripenem with BLI combinations: Increasing concentrations of doripenem as single agent or in combination with fixed concentration of BLIs were used to dose infected mice, sub-cutaneously.
Survival of the treated mice were monitored twice a day, up to 7 days post-infection. Efficacy dose 50 (ED50) was calculated by Reed and Muench method (Reed, L. J.; Muench, H. “A simple method of estimating fifty percent endpoints”. The American Journal of Hygiene, 1938, 27: 493-497.).

[6] = tested on: KPC2 K. pneumoniae ATCC BAA 1705; test: Neutropenic mice thigh infection model (human adapted model); type: in vivo; details: Doripenem 70 mg/kg fractionated over 5.5 h; end point 8 h
Protocol: Female Swiss Albino mice weighing 24-30 g were used for all studies. Study protocols were reviewed and approved by Institutional Animal Ethical Committee, Orchid Research Laboratories Limited. Mice were rendered neutropenic by intra-peritoneal cyclophosphamide injections. Log phase culture in brain heart infusion broth was injected in to mice thighs. Imipenem or Doripenen alone or in combination were administered sub-cutaneously in decreasing fractionated doses every 15 minutes over the period of 5.5 h (Flückiger, U. et al. “Integration of pharmacokinetics and pharmacodynamics of Imipenem in a human-adapted mouse model’. Antimicrobial Agents and Chemother, 1991, 35(9): 1905-1910). The Compound-1 or tazobactam was administered sub-cutaneously as bolus dose at the start of dosing. Efficacy end point was 6 h in Imipenem studies and 8 h in Doripenen studies.
Three experiments were carried out where Doripenen alone or in combination with compound-1 or tazobactam (two experiments) were evaluated. Doripenem 70 mg/kg was administered in fractionated doses over the period of 5.5 h (Fluckiger, U. et al. “Integration of pharmacokinetics and pharmacodynamics of Imipenem in a human-adapted mouse model’. Antimicrobial Agents and Chemother., 1991, 35(9): 1905-1910). Compound-1 or tazobactam was administered as bolus dose at initiation of therapy. Efficacy end point was 8 h after initiation of therapy.

CO/N=C(\C(=O)N[C@@H]1C(=O)N2C(C(=O)[O-])=C(C[N+]3(C)CCCC3)CS[C@H]12)c1csc(N)n1 [Cefepime]
MIC [1]: > 128 µg/mL
MIC of antibiotic alone (no BLI) [2]: >16 µg/mL

C[C@@H](O)[C@H]1C(=O)N2C(C(=O)O)=C([C@H]3CCCO3)S[C@H]12 [Faropenem]
MIC [1]: > 64 µg/mL

CC(C)(C)OC(=O)C[n+]1ccn(C[C@@]2(C)[C@H](C(=O)O)N3C(=O)C[C@H]3S2(=O)=O)n1 [Compound-6, 1-{[(2S,3S,5R)-2-Carboxy-3-methyl-4,4,7-trioxo-4-thia-1-azabicyclo[3.2.0]hept-3-yl]methyl}-3-(2-t-butoxy-2-oxoethyl)-1H-1,2,3-triazol-3-ium]
MIC of BLI alone [1]: >16 µg/mL
MIC of Imipenem in combination with BLI ([1]; BLI at 4 μg/mL): 8 µg/mL
MIC of Meropenem in combination with BLI ([1]; BLI at 4 μg/mL): 16 µg/mL
MIC of Imipenem in combination with BLI ([1]; BLI at 16 μg/mL): 8 µg/mL
MIC of Meropenem in combination with BLI ([1]; BLI at 16 μg/mL): 4 µg/mL
MIC of BLI alone [2]: >16 µg/mL
MIC of Imipenem in combination with BLI ([2]; BLI at 4 μg/mL): 1 µg/mL
MIC of Meropenem in combination with BLI ([2]; BLI at 4 μg/mL): 0.5 µg/mL
MIC of Imipenem in combination with BLI ([2]; BLI at 16 μg/mL): 0.5 µg/mL
MIC of Meropenem in combination with BLI ([2]; BLI at 16 μg/mL): <0.125 µg/mL

CC1=C(C(=O)O)N2C(=O)[C@@H](NC(=O)[C@H](N)c3ccc(O)cc3)[C@H]2SC1 [Cefadroxil]
MIC [1]: > 64 µg/mL
MIC of veterinary cephalosporin alone (no BLI) [3]: >32 µg/mL

C[C@]1(Cn2cc[n+](CC(N)=O)n2)[C@H](C(=O)O)N2C(=O)C[C@H]2S1(=O)=O [Compound-5, 1-{[(2S,3S,5R)-2-Carboxy-3-methyl-4,4,7-trioxo-4-thia-1-azabicyclo[3.2.0]hept-3-yl]methyl}-3-(2-amino-2-oxoethyl)-1H-1,2,3-triazol-3-ium]
MIC of BLI alone [1]: >16 µg/mL
MIC of Imipenem in combination with BLI ([1]; BLI at 4 μg/mL): 8 µg/mL
MIC of Meropenem in combination with BLI ([1]; BLI at 4 μg/mL): 8 µg/mL
MIC of Imipenem in combination with BLI ([1]; BLI at 16 μg/mL): 1 µg/mL
MIC of Meropenem in combination with BLI ([1]; BLI at 16 μg/mL): 2 µg/mL
MIC of BLI alone [2]: >16 µg/mL
MIC of Imipenem in combination with BLI ([2]; BLI at 4 μg/mL): 0.5 µg/mL
MIC of Meropenem in combination with BLI ([2]; BLI at 4 μg/mL): <0.125 µg/mL
MIC of Imipenem in combination with BLI ([2]; BLI at 16 μg/mL): 0.25 µg/mL
MIC of Meropenem in combination with BLI ([2]; BLI at 16 μg/mL): <0.125 µg/mL

C[C@@H](O)[C@H]1C(=O)N2C(C(=O)O)=C(S[C@@H]3CN[C@H](C(=O)Nc4cccc(C(=O)O)c4)C3)[C@H](C)[C@H]12 [Ertapenem]
MIC [1]: > 64 µg/mL

CO/N=C(\C(=O)N[C@@H]1C(=O)N2C(C(=O)O)=C(COC(C)=O)CS[C@H]12)c1csc(N)n1 [Cefotaxime]
MIC [1]: > 128 µg/mL
MIC of antibiotic alone (no BLI) [2]: >32 µg/mL

Cc1cn(C[C@@]2(C)[C@H](C(=O)[O-])N3C(=O)C[C@H]3S2(=O)=O)c[n+]1C [Compound-13, (2S,3S,5R)-3-Methyl-3-(4-methyl-3-methyl-imidazol-3-ium-1-ylmethyl)-4,4,7-trioxo-4-thia-1-aza-bicyclo[3.2.0]heptane-2-carboxylate]
MIC of Imipenem in combination with BLI ([1]; BLI at 4 μg/mL): 2 µg/mL
MIC of Imipenem in combination with BLI ([1]; BLI at 16 μg/mL): 2 µg/mL
MIC of Imipenem in combination with BLI ([4]; BLI at 4 μg/mL): 8 µg/mL
MIC of Imipenem in combination with BLI ([4]; BLI at 16 μg/mL): 1 µg/mL

C[C@@H](O)[C@H]1C(=O)N2C(C(=O)O)=C(S[C@@H]3CN[C@H](CNS(N)(=O)=O)C3)[C@H](C)[C@H]12 [Doripenem]
ED50 [5]: 14.1 mg/kg
Bacterial load (range), Doripenem alone [6]: 5.4E+06-2.6E+07 CFU/thigh

— patent US10201532B2, “Compounds and their use” (ALLECRA THERAPEUTICS GMBH, priority 2010, dated 2019)
